Results: US10202371B2, “Oxazolidin-2-one-pyrimidine derivatives and the use thereof as phosphatidylinositol-3-kinase inhibitors” (Novartis AG, priority 2012, dated 2019)

Molecular target: human PI3Kalpha p110 catalytic subunit (Rat-1 cells) (Homo sapiens (Human), UniProt P42336)
Experiment: Cellular assay PI3Kalpha, p-Akt(S473) SureFire in Rat-1_PI3Kalpha cells
Type: cell-based
Settings: p-AKT(Ser473), 1 h treatment
Text: AlphaScreen (Amplified Luminescent Proximity Homogeneous Assay, ALPHA, Perkin Elmer) is a non-radioactive bead-based proximity assay technology to study biomolecular interactions in a homogenous microtiter plate format. The brand name SureFire denotes AlphaScreen assays that are adapted to quantify the phosphorylation of endogenous cellular proteins in cell lysates, by using matched antibody pairs, which consist of an anti-phospho-kinase and an anti-kinase antibody. The assay allows characterization of kinase signaling in cells as well as measurement of kinase inhibitor effects. The AlphaScreen technology provides several advantages over standard assay techniques such as ELISA, as it avoids time-consuming washing procedures and reduces plate handling. Furthermore, it is miniaturizable at least to a 384-well format and provides sensitivity down to the femtomolar range, dependent on the affinity of the antibodies included in the individual AlphaScreen SureFire assay kit. High sensitivity is reached by an intrinsic amplification mechanism, which involves production of singlet oxygen molecules. SureFire assay kits are commercially available for specific targets and include pairs of validated antibodies (PerkinElmer). […]

Sequence of human PI3Kalpha p110 catalytic subunit (Rat-1 cells) (P42336 whole entry): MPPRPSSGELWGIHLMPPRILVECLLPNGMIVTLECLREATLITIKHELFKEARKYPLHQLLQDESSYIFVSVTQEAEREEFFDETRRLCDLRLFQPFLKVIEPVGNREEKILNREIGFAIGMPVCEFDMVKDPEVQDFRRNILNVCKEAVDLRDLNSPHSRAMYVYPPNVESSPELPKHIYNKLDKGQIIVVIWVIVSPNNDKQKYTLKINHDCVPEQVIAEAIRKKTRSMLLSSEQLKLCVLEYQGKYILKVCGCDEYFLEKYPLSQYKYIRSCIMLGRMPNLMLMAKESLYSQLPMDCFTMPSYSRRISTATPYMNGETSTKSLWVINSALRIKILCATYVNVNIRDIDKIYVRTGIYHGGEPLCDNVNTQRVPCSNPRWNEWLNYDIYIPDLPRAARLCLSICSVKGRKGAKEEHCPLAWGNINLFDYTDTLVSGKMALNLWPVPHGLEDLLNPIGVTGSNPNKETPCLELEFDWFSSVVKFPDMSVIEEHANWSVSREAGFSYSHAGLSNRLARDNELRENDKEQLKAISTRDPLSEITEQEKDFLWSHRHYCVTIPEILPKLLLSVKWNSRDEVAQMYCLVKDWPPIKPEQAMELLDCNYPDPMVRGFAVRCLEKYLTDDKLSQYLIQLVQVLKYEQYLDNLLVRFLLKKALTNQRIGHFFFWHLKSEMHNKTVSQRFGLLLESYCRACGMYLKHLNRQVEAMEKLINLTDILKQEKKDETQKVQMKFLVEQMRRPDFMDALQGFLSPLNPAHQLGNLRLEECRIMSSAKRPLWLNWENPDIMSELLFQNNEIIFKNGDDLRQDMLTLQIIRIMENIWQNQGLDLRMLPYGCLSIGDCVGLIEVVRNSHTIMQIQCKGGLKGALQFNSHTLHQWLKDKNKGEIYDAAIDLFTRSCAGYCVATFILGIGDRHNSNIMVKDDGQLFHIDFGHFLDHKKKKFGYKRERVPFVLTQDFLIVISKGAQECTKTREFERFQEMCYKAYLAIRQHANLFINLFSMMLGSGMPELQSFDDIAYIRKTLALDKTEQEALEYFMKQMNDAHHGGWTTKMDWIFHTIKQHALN
Sequence of human PI3Kalpha p110 catalytic subunit (Rat-1 cells) (Q63787 whole entry partner): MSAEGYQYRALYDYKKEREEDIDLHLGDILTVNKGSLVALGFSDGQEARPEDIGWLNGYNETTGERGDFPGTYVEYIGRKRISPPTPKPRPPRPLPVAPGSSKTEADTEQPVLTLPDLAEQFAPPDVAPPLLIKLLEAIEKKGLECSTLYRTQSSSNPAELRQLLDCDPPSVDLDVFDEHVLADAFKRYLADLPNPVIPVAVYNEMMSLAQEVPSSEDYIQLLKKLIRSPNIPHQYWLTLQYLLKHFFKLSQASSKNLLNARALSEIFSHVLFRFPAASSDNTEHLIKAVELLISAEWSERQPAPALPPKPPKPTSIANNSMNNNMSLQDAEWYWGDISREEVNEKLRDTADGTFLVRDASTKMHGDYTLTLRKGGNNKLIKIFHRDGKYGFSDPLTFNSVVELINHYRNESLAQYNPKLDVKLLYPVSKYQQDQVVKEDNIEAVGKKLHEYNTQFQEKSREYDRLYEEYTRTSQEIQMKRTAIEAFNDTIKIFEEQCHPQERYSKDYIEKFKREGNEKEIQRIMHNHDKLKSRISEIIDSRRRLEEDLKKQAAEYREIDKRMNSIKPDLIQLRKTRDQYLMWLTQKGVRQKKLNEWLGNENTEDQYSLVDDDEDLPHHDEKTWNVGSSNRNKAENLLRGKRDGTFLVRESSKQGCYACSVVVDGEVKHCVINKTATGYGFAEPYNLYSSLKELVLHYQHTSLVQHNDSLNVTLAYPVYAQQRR

`Nc1ncc(-c2cc(N3C(=O)O[C@@H](c4ccccc4)[C@@H]3CO)nc(N3CCOCC3)n2)c(C(F)(F)F)n1` [Example 10] gave a Rat1-PI3Ka/IC50 of 0.085 umol I-1.
